pKi: −log10 of the molar value.
Tested on: Aspergillus niger heat-labile phosphatase (4-nitrophenylphosphatase), purified, strain NRRL-3
Assay: A. niger phosphatase activity assay with 4-NPP as substrate (formation of p-nitrophenol at 400 nm)
Format: biochemical
Protocol: A. niger phosphatase activity was routinely determined by monitoring, in a spectrophotometer set at an absorbance wavelength of 400 nm, the formation of p-nitrophenol generated by the hydrolysis of 4-NPP (purchased from Calbiochem). Non-enzymatic hydrolysis controls were routinely included. The phosphatase assay contained the following in a total volume of 1.0 ml: 8 mM 4-NPP; 25 mM Tris-HCl (pH 8.0); and 5 mM MgCl2. The reaction, which was initiated by addition of the crude, mycelium-free supernatant fluid mentioned above, was carried out at 30° C. in a Varian DMS 70 spectrophotometer with a wavelength bandpass of 2 nanometers. Molar absorptivity of 4-nitrophenol at pH 8.0 was 1.62×10^4 M^-1 cm^-1.
To further examine one of these potential substrates at a greater level of sensitivity, the enzyme was incubated with [gamma-^32 P]ATP under identical conditions and assayed for the liberation of ^32 Pi. No liberation above background was detected and hydrolysis of ATP appeared to occur at a rate less than one/ten-millionth of that observed with 4-NPP.
Prospective inhibitors were added to the standard assay with 4-NPP as substrate and inhibition was monitored and expressed as percent inhibition of the untreated sample (TABLE 3).

[1] = 1 mM inhibitor, standard assay with 4-NPP as substrate
[2] = 10 mM inhibitor, standard assay with 4-NPP as substrate
[3] = 1 mM inhibitor, incubated with the phosphatase for 15 minutes at room temperature prior to assay, 4-NPP as substrate

| Inhibition (%) [2] [%] | Compound | Inhibition (%) [1] [%] | Inhibition (%) [3] [%] | also measured |
| --- | --- | --- | --- | --- |
| 56 | O=P(O)(O)OP(=O)(O)O [PPi, inorganic pyrophosphate] | 4 | – | – |
| 39 | O=P(O)(O)O [orthophosphate] | – | – | – |
| – | O=C(O)CI [iodoacetate] | – | 96 | – |
| – | Nc1ncnc2c1ncn2[C@@H]1O[C@H](COP(=O)(O)OP(=O)(O)OP(=O)(O)O)[C@@H](O)[C@H]1O [ATP, adenosine triphosphate] | – | – | pKi (competitive inhibition of hydrolysis of 4-NPP, read-out: Ki for ATP): 2.89 |
| – | CCN1C(=O)C=CC1=O [N-ethylmaleimide] | – | 75 | – |

| Compound | Inhibition (%) [2] [%] | Inhibition (%) [1] [%] | Inhibition (%) [3] [%] | also measured |
| --- | --- | --- | --- | --- |
| [F-].[Na+] [sodium fluoride] | 80 | 22 | – | – |

Reference: patent US5432064A, “Process for dephosphorylating linear polynucleotide substrate with prosphatase form aspergillus niger” (Board of Regents of the University of Nebraska, priority 1992, dated 1995)
